Assay results taken from paper PMC3407795 (EJNMMI Research, 2012).
Read-outs that look alike come from different tables or passages of the source.

Experiments:
[1] = Metabolism in blood (in vivo stability); design: species or system mouse; conditions: healthy male Swiss albino mice, blood collected 5 min after iv injection (3 nmol), RP-HPLC radioanalysis
Protocol: The animals were kept for 5 min in cages with free access to water. They were sacrificed by cardiac puncture under ether anesthesia, and blood was withdrawn with a syringe and immediately placed in a pre-chilled EDTA-containing polypropylene vial on ice. Blood samples were centrifuged at 2,000 × g at 4 °C for 10 min.

[2] = Biodistribution in healthy mice; format: in vivo; conditions: male, mouse, total radioactivity, healthy Swiss albino mice
Protocol: In the in vivo receptor blockade animal group, excess Tate (50 nmol) was administered intravenously (iv) together with the radioligand. Animals were sacrificed in groups of four at 4- and 24-h time points post injection (pi). […] Tissue distribution data were calculated as percent injected dose per gram (%ID/g) applying a suitable algorithm.
(§1) The in vivo data presented as mean %ID/g ± SD (n ≥ 4) were statistically analyzed with Student’s t test (Prism^TM 2.01, GraphPad Software, San Diego, CA, USA). Analyses were 2-tailed, and a P value < 0.05 was considered statistically significant.

[3] = Biodistribution in AR4-2J tumor-bearing mice; format: in vivo; conditions: female, mouse, iv, total radioactivity, AR4-2J tumor SCID mice, mean ± SD; for tissue uptake at 1 h: 1 h pi
Protocol: In the flanks of each of female SCID mice, inocula (150 μL) containing a suspension of 0.8 × 10^7 AR4-2J cells in PBS buffer were subcutaneously injected. […] Mice were sacrificed at 4 h pi, and biodistribution was studied as described above.
as §1

[4] = Biodistribution in HEK293-hsst2A+ tumor-bearing mice; format: in vivo; conditions: mouse, iv, total radioactivity, HEK293-hsst2A+ tumor SCID mice, mean ± SD
Protocol: (§2) In the flanks of SCID mice, inocula (150 μL) containing a suspension of 1.8 × 10^7 HEK293-hsst2A^+, -hsst3^+ or -hsst5^+ cells in PBS were subcutaneously injected. Tumors of substantial size were grown within 3 weeks, whereupon biodistribution experiments were performed.
as §1

[5] = Biodistribution in HEK293-hsst3+ tumor-bearing mice; format: in vivo; conditions: mouse, iv, total radioactivity, HEK293-hsst3+ tumor SCID mice, 4 h pi, mean ± SD
Protocol: as §2, §1

[6] = Biodistribution in HEK293-hsst5+ tumor-bearing mice; format: in vivo; conditions: mouse, iv, total radioactivity, HEK293-hsst5+ tumor SCID mice, 4 h pi, mean ± SD
Protocol: as §2, §1

[7] = Biodistribution in AR4-2J tumor-bearing mice; format: in vivo; conditions: female, mouse, iv, total radioactivity, AR4-2J tumor SCID mice, 1 h pi, mean ± SD
[8] = blood, 10 pmol, 4 h pi, read-out: Blood uptake
[9] = femur, 10 pmol, 4 h pi, read-out: Femur uptake
[10] = heart, 10 pmol, read-out: Heart uptake
[11] = heart, 10 pmol, 4 h pi, read-out: Heart uptake
[12] = intestines, 10 pmol total peptide, read-out: Intestines uptake
[13] = intestines, 10 pmol total peptide, 4 h pi, read-out: Intestines uptake
[14] = 10 pmol, 4 h pi, read-out: Tumor uptake
[15] = kidneys, 10 pmol, read-out: Kidneys uptake
[16] = kidneys, 10 pmol, 4 h pi, read-out: Kidneys uptake
[17] = liver, 10 pmol, read-out: Liver uptake
[18] = liver, 10 pmol, 4 h pi, read-out: Liver uptake
[19] = lung, 10 pmol total peptide, read-out: Lung uptake
[20] = lung, 10 pmol total peptide, 4 h pi, read-out: Lung uptake
[21] = muscle, 10 pmol total peptide, read-out: Muscle uptake
[22] = muscle, 10 pmol total peptide, 4 h pi, read-out: Muscle uptake
[23] = pancreas, 10 pmol, read-out: Pancreas uptake
[24] = pancreas, 10 pmol, 4 h pi, read-out: Pancreas uptake
[25] = spleen, 10 pmol total peptide, 4 h pi, read-out: Spleen uptake
[26] = stomach, 10 pmol, read-out: Stomach uptake
[27] = stomach, 10 pmol, 4 h pi, read-out: Stomach uptake
[28] = blood, 10 pmol, read-out: Blood uptake
[29] = femur, 10 pmol, read-out: Femur uptake
[30] = 10 pmol, read-out: Tumor uptake
[31] = spleen, 10 pmol total peptide, read-out: Spleen uptake

In the case of `C[C@H](NC(=O)CN1CCN(CC(=O)O)CCN(CC(=O)O)CCN(CC(=O)O)CC1)C(=O)NCC(=O)N[C@H]1CSSC[C@@H](C(=O)O)NC(=O)[C@H](CO)NC(=O)[C@H]([C@@H](C)O)NC(=O)[C@H](Cc2ccccc2)NC(=O)[C@H]([C@@H](C)O)NC(=O)[C@H](CCCCN)NC(=O)[C@@H](Cc2c[nH]c3ccccc23)NC(=O)[C@H](Cc2ccccc2)NC(=O)[C@H](Cc2ccccc2)NC(=O)[C@H](CC(N)=O)NC(=O)[C@H](CCCCN)NC1=O` [[^111In]AT2S, metal not drawn], the “intact radiopeptide detected in blood” value [1] is reported as 6.5%, the tissue uptake at 4 h ([2]; kidney, 10 pmol total peptide, 4 h pi, iv 10 pmol, read-out: Kidney uptake) is reported as 22.9 %ID/g and the tissue uptake at 24 h ([2]; kidney, 10 pmol total peptide, 24 h pi, iv 10 pmol) is reported as 7.6 %ID/g. It also gave a tissue uptake at 4 h ([2]; pancreas, 10 pmol total peptide, 4 h pi, iv 10 pmol, read-out: Pancreas uptake) of 2.9 %ID/g, a tissue uptake at 4 h ([2]; pancreas, iv, 4 h pi + excess Tate (50 nmol), read-out: Pancreas uptake, sst2 blockade) of 0.17 %ID/g and a tissue uptake at 4 h [3, 8] of 0.19 ± 0.02 %ID/g. The tissue uptake at 4 h ([3]; blood, 4 h pi + co-injection of 50 nmol Tate, read-out: Blood uptake, blocked) was 0.26 ± 0.03 %ID/g, the tissue uptake at 4 h [3, 9] was 0.4 ± 0.24 %ID/g and the tissue uptake at 4 h ([3]; femur, 4 h pi + co-injection of 50 nmol Tate, read-out: Femur uptake, blocked) was 0.19 ± 0.02 %ID/g. The tissue uptake at 1 h [3, 10] was 0.67 ± 0.12 %ID/g, the tissue uptake at 4 h [3, 11] was 0.18 ± 0.05 %ID/g and the tissue uptake at 4 h ([3]; heart, 4 h pi + co-injection of 50 nmol Tate, read-out: Heart uptake, blocked) was 0.17 ± 0.04 %ID/g. For the same compound, the tissue uptake at 1 h [3, 12] was 1.98 ± 0.29 %ID/g, the tissue uptake at 4 h [3, 13] was 1.92 ± 0.25 %ID/g and the tissue uptake at 4 h ([3]; intestines, 4 h pi + co-injection of 50 nmol Tate, read-out: Intestines uptake, blocked) was 0.77 ± 0.58 %ID/g. The tissue uptake at 4 h [3, 14] was 1.82 ± 0.36 %ID/g, the tissue uptake at 4 h ([3]; 4 h pi + co-injection of 50 nmol Tate, read-out: Tumor uptake, blocked) was 0.21 ± 0.17 %ID/g and the tissue uptake at 1 h [3, 15] was 23.8 ± 4.28 %ID/g. It also gave a tissue uptake at 4 h [3, 16] of 21.1 ± 4.43 %ID/g, a tissue uptake at 4 h ([3]; kidneys, 4 h pi + co-injection of 50 nmol Tate, read-out: Kidneys uptake, blocked) of 24.4 ± 9.15 %ID/g and a tissue uptake at 1 h [3, 17] of 1.27 ± 0.09 %ID/g. It also gave a tissue uptake at 4 h [3, 18] of 0.95 ± 0.21 %ID/g, a tissue uptake at 4 h ([3]; liver, 4 h pi + co-injection of 50 nmol Tate, read-out: Liver uptake, blocked) of 1.02 ± 0.11 %ID/g and a tissue uptake at 1 h [3, 19] of 2.05 ± 0.52 %ID/g. The tissue uptake at 4 h [3, 20] was 1.43 ± 1.36 %ID/g, the tissue uptake at 4 h ([3]; lung, 4 h pi + co-injection of 50 nmol Tate, read-out: Lung uptake, blocked) was 3.3 ± 4.93 %ID/g and the tissue uptake at 1 h [3, 21] was 0.22 ± 0.02 %ID/g. It also gave a tissue uptake at 4 h [3, 22] of 0.06 ± 0.01 %ID/g, a tissue uptake at 4 h ([3]; muscle, 4 h pi + co-injection of 50 nmol Tate, read-out: Muscle uptake, blocked) of 0.07 ± 0.01 %ID/g and a tissue uptake at 1 h [3, 23] of 7.35 ± 0.74 %ID/g. The tissue uptake at 4 h [3, 24] was 5.13 ± 0.75 %ID/g, the tissue uptake at 4 h ([3]; pancreas, 4 h pi + co-injection of 50 nmol Tate, read-out: Pancreas uptake, blocked) was 0.15 ± 0.05 %ID/g and the tissue uptake at 4 h [3, 25] was 1.1 ± 0.63 %ID/g. The tissue uptake at 4 h ([3]; spleen, 4 h pi + co-injection of 50 nmol Tate, read-out: Spleen uptake, blocked) was 0.61 ± 0.18 %ID/g, the tissue uptake at 1 h [3, 26] was 3.23 ± 0.77 %ID/g and the tissue uptake at 4 h [3, 27] was 1.81 ± 0.47 %ID/g. For the same compound, the tissue uptake at 4 h ([3]; stomach, 4 h pi + co-injection of 50 nmol Tate, read-out: Stomach uptake, blocked) was 0.18 ± 0.07 %ID/g, the tissue uptake at 4 h [4, 8] was 0.23 ± 0.07 %ID/g and the tissue uptake at 4 h ([4]; blood, 4 h pi + co-injection of 35 nmol DP2, read-out: Blood uptake, blocked) was 0.66 ± 0.35 %ID/g. The tissue uptake at 4 h [4, 9] was 0.24 ± 0.09 %ID/g, the tissue uptake at 4 h ([4]; femur, 4 h pi + co-injection of 35 nmol DP2, read-out: Femur uptake, blocked) was 0.21 ± 0.11 %ID/g and the tissue uptake at 4 h [4, 11] was 0.22 ± 0.05 %ID/g. It also gave a tissue uptake at 4 h ([4]; heart, 4 h pi + co-injection of 35 nmol DP2, read-out: Heart uptake, blocked) of 0.38 ± 0.1 %ID/g, a tissue uptake at 4 h [4, 13] of 2 ± 0.48 %ID/g and a tissue uptake at 4 h ([4]; intestines, 4 h pi + co-injection of 35 nmol DP2, read-out: Intestines uptake, blocked) of 1.74 ± 1.02 %ID/g. For the same compound, the tissue uptake at 4 h [4, 14] was 1.49 ± 0.2 %ID/g, the tissue uptake at 4 h ([4]; 4 h pi + co-injection of 35 nmol DP2, read-out: Tumor uptake, blocked) was 0.27 ± 0.2 %ID/g and the tissue uptake at 4 h [4, 16] was 23.2 ± 7.04 %ID/g. For the same compound, the tissue uptake at 4 h ([4]; kidneys, 4 h pi + co-injection of 35 nmol DP2, read-out: Kidneys uptake, blocked) was 25.5 ± 3.7 %ID/g, the tissue uptake at 4 h [4, 18] was 1.31 ± 0.36 %ID/g and the tissue uptake at 4 h ([4]; liver, 4 h pi + co-injection of 35 nmol DP2, read-out: Liver uptake, blocked) was 0.963 ± 0.67 %ID/g. For the same compound, the tissue uptake at 4 h [4, 20] was 1.37 ± 0.55 %ID/g, the tissue uptake at 4 h ([4]; lung, 4 h pi + co-injection of 35 nmol DP2, read-out: Lung uptake, blocked) was 0.47 ± 0.08 %ID/g and the tissue uptake at 4 h [4, 22] was 0.07 ± 0.02 %ID/g. The tissue uptake at 4 h ([4]; muscle, 4 h pi + co-injection of 35 nmol DP2, read-out: Muscle uptake, blocked) was 0.07 ± 0.03 %ID/g, the tissue uptake at 4 h [4, 24] was 5.73 ± 1.28 %ID/g and the tissue uptake at 4 h ([4]; pancreas, 4 h pi + co-injection of 35 nmol DP2, read-out: Pancreas uptake, blocked) was 0.16 ± 0.1 %ID/g. The tissue uptake at 4 h [4, 25] was 0.46 ± 0.11 %ID/g, the tissue uptake at 4 h ([4]; spleen, 4 h pi + co-injection of 35 nmol DP2, read-out: Spleen uptake, blocked) was 0.5 ± 0.36 %ID/g and the tissue uptake at 4 h [4, 27] was 1.96 ± 0.53 %ID/g. It also gave a tissue uptake at 4 h ([4]; stomach, 4 h pi + co-injection of 35 nmol DP2, read-out: Stomach uptake, blocked) of 1.29 ± 0.36 %ID/g, a tissue uptake at 4 h [5, 28] of 0.19 ± 0.03 %ID/g and a tissue uptake at 4 h [5, 29] of 0.23 ± 0.03 %ID/g. The tissue uptake at 4 h [5, 10] was 0.15 ± 0.04 %ID/g, the tissue uptake at 4 h [5, 12] was 2.39 ± 0.43 %ID/g and the tissue uptake at 4 h [5, 30] was 1.24 ± 0.27 %ID/g. The tissue uptake at 4 h [5, 15] was 23.4 ± 4.69 %ID/g, the tissue uptake at 4 h [5, 17] was 1.02 ± 0.19 %ID/g and the tissue uptake at 4 h [5, 19] was 0.68 ± 0.29 %ID/g. It also gave a tissue uptake at 4 h [5, 21] of 0.06 ± 0.01 %ID/g, a tissue uptake at 4 h [5, 23] of 3.33 ± 0.4 %ID/g and a tissue uptake at 4 h [5, 31] of 0.82 ± 0.11 %ID/g. The tissue uptake at 4 h [5, 26] was 3.41 ± 0.97 %ID/g, the tissue uptake at 4 h [6, 28] was 0.1 ± 0.04 %ID/g and the tissue uptake at 4 h [6, 10] was 0.15 ± 0.02 %ID/g. It also gave a tissue uptake at 4 h [6, 12] of 1.54 ± 0.09 %ID/g, a tissue uptake at 4 h [6, 30] of 0.41 ± 0.12 %ID/g and a tissue uptake at 4 h [6, 15] of 24.1 ± 1.21 %ID/g. The tissue uptake at 4 h [6, 17] was 1.1 ± 0.08 %ID/g, the tissue uptake at 4 h ([6]; lung, 10 pmol, read-out: Lung uptake) was 0.56 ± 0.28 %ID/g and the tissue uptake at 4 h [6, 21] was 0.06 ± 0.01 %ID/g. For the same compound, the tissue uptake at 4 h [6, 23] was 2.79 ± 0.4 %ID/g, the tissue uptake at 4 h [6, 31] was 0.78 ± 0.07 %ID/g and the tissue uptake at 4 h [6, 26] was 3.06 ± 0.73 %ID/g. For the same compound, the tissue uptake at 1 h [7, 28] was 1.34 ± 0.21 %ID/g, the tissue uptake at 1 h [7, 29] was 0.49 ± 0.12 %ID/g and the tissue uptake at 1 h [7, 30] was 3.05 ± 0.51 %ID/g. It also gave a tissue uptake at 1 h [7, 31] of 0.84 ± 0.21 %ID/g.
